Read-outs that look alike come from different tables or passages of the source. Each block holds one compound with its values, some of them ahead of it.
Tests used:
[1] = system: A549; experiment: Sulforhodamine B (SRB) growth inhibition assay; type: cell-based, human; conditions: A549, ± SE
Protocol: (§1) Cells were inoculated into 96-well plates in growth medium. After 24 h, cells were fixed with 10% trichloroacetic acid (TCA), to represent a measurement of the cell population at the time of drug addition (Tz). After incubation with vehicle (0.1% DMSO) or different concentrations of compound for 48 h (Tt), cells were fixed with 10% TCA and stained with 0.4% SRB. After staining, unbound SRB was removed by 1% acetic acid. Bound SRB was solubilized with 10 mM trizma base and the absorbance was measured at 515 nm. Percentage of growth inhibition was calculated as: 100−[(Tt-Tz)/(C-Tz)] ×100. Tt represents absorbance of compound-treated group, and C means absorbance of vehicle-treated group.

[2] = system: HCT116; experiment: Sulforhodamine B (SRB) growth inhibition assay; type: cell-based, human; conditions: HCT116, ± SE
Protocol: as §1

[3] = system: HT-29 cells; experiment: Sulforhodamine B (SRB) growth inhibition assay; type: cell-based, human
Protocol: as §1

[4] = system: Hep3B; experiment: Sulforhodamine B (SRB) growth inhibition assay; type: cell-based, human; conditions: ± SE
Protocol: as §1

[5] = system: HT-29 cells; experiment: MTT cell viability assay; type: cell-based; conditions: Homo sapiens, 24 h, read-out: IC50 (cell death, MTT)
Protocol: Cells were seeded in 96-well plates in growth medium overnight. Cells were treated with vehicle (0.1% DMSO) or different concentrations of compound for 24 h, then incubated with MTT reagent at 37°C for 1 h. After incubation, the insoluble formazan produced in living cells. The formazan crystals were dissolved with DMSO and the absorbance was measured at 550 nm.

[6] = system: HT-29 tumor xenograft; experiment: HT-29 tumor xenograft model; type: in vivo, athymic nude mice; conditions: 100 or 200 mg/kg qd by gavage, 18 days
Protocol: Tumor volumes were calculated using caliper measurements twice per week using the formula volume (mm^3) = (length × width^2)/2. Body weights were measured daily during the first week and twice per week thereafter. […] The protocols of the in vivo study were approved by the Animal Care and User Committee at National Taiwan University.

[7] = system: PC3; experiment: Sulforhodamine B (SRB) growth inhibition assay; type: cell-based; conditions: Homo sapiens, PC-3; PC3, ± SE
Protocol: as §1, with “Bound SRB was solubilized with 10 mM trizma base and the absorbance was measured at 515 nm.” left out

[8] = system: HUVEC cells; experiment: MTT cell viability assay in normal cells; type: cell-based, human; conditions: 24 h
Protocol: Then, cell viability was measured by the mitochondrial MTT reduction activity assay.

[9] = system: HT-29 cells; experiment: Cell death detection ELISA (DNA fragmentation); type: cell-based, human; conditions: 24 h, compared with SAHA
Protocol: Cell Death Detection ELISA Kit (Roche Diagnostics, Switzerland) was used to analyze drug-induced apoptosis. […] Adherent cells were collected and the assay was performed according to the manufacturer's protocol.

[10] = molecular target: HDAC1 (Homo sapiens, UniProt Q13547); experiment: Fluorometric HDAC activity assay, recombinant isoform
Chain of HDAC1 (Q13547 whole entry, canonical isoform): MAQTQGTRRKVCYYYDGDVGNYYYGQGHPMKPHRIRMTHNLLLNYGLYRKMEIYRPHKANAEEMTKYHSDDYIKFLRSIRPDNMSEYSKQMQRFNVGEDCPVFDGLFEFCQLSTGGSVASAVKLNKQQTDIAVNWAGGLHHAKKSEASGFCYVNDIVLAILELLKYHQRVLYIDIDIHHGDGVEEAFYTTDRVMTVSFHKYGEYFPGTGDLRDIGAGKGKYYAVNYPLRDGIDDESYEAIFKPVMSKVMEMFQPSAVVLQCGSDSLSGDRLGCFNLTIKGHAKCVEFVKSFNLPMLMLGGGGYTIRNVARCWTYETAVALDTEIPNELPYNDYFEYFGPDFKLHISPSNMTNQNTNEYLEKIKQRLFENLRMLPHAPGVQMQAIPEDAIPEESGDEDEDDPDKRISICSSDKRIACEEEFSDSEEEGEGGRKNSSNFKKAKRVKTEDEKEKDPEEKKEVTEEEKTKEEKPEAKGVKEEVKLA
Protocol: (§2) Two different types of in vitro HDAC activity assays were used (with or without cells). Test compounds were incubated with individual recombinant HDAC isoforms (HDAC 1-9) and the assay was performed according to the manufacturer's protocol (BPS Biosciences, USA).

[11] = molecular target: HDAC2 (Homo sapiens, UniProt Q92769); experiment: as above
Chain of HDAC2 (Q92769 whole entry): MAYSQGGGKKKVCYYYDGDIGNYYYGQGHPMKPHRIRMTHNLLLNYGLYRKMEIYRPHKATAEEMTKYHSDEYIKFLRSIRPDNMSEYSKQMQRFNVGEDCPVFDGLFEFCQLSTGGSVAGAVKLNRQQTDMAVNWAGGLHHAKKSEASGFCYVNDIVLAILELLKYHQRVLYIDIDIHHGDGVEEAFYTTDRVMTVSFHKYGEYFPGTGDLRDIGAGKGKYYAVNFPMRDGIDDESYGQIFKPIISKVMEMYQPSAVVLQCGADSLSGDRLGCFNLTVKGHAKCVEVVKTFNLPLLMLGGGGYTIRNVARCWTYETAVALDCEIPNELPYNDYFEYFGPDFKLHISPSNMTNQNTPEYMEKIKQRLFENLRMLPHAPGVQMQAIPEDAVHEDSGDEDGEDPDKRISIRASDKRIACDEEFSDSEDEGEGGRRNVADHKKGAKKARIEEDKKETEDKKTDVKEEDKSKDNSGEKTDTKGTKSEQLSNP
Protocol: as §2

[12] = molecular target: T1, HDAC8 (Homo sapiens, UniProt Q9BY41); experiment: as above
T1 sequence (Q9BY41 1-377): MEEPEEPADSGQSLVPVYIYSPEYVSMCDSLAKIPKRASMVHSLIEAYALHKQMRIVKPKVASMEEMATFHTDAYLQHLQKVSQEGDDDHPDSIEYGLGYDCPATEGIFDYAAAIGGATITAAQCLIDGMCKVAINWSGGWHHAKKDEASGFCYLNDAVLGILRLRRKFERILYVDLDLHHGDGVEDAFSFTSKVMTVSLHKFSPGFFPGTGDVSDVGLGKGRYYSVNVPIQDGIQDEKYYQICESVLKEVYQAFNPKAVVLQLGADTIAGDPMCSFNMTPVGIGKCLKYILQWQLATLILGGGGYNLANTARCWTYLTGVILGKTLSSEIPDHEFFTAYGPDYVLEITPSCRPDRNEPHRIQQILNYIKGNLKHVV
Protocol: as §2

[13] = molecular target: HDAC4 (Homo sapiens, UniProt P56524); experiment: as above
Chain of HDAC4 (P56524 whole entry): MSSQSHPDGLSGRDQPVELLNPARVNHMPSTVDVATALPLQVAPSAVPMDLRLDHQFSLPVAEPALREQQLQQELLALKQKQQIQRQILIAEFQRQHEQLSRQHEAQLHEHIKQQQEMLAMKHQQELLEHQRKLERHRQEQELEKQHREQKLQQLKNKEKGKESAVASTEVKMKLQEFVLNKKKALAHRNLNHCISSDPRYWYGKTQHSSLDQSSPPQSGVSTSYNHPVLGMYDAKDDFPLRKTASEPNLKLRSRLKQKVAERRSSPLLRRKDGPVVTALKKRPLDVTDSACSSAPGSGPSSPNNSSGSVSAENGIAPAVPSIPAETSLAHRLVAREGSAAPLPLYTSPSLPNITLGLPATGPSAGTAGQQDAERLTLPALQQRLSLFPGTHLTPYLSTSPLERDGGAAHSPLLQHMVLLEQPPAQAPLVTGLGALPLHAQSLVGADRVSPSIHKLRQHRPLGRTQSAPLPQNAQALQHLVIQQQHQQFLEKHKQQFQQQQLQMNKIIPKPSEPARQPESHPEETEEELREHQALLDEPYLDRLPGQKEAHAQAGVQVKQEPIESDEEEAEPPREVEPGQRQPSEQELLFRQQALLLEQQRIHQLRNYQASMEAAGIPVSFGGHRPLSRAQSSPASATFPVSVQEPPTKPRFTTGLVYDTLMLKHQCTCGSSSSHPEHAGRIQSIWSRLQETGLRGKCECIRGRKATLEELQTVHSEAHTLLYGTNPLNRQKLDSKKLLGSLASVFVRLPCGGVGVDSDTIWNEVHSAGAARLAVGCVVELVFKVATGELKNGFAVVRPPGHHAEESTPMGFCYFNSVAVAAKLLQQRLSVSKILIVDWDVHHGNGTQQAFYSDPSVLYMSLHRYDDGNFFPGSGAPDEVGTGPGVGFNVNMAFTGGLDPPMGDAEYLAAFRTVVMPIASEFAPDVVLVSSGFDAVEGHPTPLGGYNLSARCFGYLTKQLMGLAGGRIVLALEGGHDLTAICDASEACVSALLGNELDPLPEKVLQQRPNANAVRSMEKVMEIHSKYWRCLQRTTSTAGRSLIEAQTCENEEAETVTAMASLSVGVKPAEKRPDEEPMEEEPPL
Protocol: as §2

[14] = molecular target: HDAC5 (Homo sapiens, UniProt Q9UQL6); experiment: as above
Chain of HDAC5 (Q9UQL6 whole entry): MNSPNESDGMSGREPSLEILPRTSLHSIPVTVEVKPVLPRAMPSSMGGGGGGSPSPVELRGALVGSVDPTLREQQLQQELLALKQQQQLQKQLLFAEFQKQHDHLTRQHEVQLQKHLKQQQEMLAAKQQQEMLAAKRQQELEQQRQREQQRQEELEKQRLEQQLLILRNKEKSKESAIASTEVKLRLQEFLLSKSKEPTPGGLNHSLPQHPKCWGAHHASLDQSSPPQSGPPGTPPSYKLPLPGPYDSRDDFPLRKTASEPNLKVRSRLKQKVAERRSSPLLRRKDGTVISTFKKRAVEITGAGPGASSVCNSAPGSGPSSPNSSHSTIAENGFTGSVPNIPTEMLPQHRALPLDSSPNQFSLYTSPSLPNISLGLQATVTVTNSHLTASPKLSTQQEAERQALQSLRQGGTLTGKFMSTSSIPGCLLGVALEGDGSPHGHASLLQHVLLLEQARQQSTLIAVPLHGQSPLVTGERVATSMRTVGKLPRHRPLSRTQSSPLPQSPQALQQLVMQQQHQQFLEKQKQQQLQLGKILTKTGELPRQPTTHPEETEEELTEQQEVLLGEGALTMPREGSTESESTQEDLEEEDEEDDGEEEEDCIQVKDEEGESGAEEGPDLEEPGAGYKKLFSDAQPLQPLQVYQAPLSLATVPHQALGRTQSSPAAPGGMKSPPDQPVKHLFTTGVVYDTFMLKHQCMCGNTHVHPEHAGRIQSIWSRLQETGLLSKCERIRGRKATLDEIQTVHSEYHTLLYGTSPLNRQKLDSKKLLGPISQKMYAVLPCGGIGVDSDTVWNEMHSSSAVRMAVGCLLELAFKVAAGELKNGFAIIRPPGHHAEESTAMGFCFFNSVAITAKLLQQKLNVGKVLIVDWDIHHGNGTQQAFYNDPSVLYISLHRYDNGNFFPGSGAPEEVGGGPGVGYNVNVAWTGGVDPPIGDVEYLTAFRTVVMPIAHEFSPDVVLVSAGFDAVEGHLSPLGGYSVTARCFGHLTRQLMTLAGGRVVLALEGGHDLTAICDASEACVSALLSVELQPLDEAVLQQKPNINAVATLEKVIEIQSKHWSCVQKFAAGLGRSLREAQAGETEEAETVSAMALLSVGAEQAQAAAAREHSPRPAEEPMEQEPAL
Protocol: as §2

[15] = molecular target: T2, HDAC7 (Homo sapiens, UniProt Q8WUI4); experiment: as above
T2 sequence (Q8WUI4 1-952): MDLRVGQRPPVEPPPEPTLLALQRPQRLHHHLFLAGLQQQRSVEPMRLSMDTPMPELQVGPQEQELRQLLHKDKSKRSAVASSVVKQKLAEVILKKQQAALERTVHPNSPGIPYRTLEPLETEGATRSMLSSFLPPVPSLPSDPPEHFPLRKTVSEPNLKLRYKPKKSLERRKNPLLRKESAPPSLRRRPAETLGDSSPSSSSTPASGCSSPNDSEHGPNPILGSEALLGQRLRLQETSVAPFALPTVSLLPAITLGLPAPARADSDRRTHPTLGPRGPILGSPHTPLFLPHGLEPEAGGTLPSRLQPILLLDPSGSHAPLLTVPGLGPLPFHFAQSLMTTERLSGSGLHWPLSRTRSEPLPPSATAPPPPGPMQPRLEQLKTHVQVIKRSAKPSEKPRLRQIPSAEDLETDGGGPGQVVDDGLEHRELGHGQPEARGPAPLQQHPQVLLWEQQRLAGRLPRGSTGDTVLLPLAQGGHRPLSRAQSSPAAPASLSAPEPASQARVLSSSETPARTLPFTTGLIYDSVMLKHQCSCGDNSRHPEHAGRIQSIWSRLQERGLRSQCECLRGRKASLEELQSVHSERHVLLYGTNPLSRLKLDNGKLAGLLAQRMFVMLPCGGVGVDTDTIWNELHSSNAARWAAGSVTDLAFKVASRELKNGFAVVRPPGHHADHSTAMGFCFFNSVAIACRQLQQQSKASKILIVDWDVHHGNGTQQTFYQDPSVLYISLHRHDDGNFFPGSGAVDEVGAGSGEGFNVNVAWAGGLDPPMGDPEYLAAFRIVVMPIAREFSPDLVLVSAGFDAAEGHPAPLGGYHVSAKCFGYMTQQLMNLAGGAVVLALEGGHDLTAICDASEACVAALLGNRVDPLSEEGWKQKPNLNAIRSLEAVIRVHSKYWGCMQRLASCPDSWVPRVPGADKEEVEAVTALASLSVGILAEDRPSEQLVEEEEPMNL
Protocol: as §2

[16] = molecular target: HDAC9 (Homo sapiens, UniProt Q9UKV0); experiment: as above
Chain of HDAC9 (Q9UKV0 whole entry): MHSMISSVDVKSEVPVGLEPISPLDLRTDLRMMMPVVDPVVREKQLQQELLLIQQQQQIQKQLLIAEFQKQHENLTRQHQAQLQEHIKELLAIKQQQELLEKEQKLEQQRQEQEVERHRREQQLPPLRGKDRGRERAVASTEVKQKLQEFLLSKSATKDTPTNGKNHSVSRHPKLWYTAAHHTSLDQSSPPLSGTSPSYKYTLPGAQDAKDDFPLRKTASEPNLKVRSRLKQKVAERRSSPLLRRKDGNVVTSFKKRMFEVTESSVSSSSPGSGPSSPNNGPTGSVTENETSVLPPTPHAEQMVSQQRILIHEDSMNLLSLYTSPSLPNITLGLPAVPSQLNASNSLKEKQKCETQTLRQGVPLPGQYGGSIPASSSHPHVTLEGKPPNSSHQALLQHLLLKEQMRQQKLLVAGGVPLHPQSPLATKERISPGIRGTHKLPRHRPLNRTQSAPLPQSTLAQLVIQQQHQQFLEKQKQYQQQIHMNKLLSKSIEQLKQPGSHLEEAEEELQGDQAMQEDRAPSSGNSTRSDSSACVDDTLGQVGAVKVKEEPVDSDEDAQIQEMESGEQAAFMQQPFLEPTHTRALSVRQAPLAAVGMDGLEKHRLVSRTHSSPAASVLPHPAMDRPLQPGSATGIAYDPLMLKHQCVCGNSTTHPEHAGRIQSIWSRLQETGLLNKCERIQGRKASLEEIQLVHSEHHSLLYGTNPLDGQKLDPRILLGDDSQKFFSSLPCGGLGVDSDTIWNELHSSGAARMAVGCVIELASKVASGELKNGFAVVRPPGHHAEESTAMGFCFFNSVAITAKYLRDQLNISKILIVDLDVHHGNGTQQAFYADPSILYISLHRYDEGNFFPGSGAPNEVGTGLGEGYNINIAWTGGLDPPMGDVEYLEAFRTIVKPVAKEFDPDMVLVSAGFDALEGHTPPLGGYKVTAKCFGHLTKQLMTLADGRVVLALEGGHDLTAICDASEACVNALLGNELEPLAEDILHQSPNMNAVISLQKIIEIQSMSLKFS
Protocol: as §2

[17] = molecular target: T3, HDAC6 (Homo sapiens, UniProt Q9UBN7); experiment: as above
T3 sequence (Q9UBN7 1-1215): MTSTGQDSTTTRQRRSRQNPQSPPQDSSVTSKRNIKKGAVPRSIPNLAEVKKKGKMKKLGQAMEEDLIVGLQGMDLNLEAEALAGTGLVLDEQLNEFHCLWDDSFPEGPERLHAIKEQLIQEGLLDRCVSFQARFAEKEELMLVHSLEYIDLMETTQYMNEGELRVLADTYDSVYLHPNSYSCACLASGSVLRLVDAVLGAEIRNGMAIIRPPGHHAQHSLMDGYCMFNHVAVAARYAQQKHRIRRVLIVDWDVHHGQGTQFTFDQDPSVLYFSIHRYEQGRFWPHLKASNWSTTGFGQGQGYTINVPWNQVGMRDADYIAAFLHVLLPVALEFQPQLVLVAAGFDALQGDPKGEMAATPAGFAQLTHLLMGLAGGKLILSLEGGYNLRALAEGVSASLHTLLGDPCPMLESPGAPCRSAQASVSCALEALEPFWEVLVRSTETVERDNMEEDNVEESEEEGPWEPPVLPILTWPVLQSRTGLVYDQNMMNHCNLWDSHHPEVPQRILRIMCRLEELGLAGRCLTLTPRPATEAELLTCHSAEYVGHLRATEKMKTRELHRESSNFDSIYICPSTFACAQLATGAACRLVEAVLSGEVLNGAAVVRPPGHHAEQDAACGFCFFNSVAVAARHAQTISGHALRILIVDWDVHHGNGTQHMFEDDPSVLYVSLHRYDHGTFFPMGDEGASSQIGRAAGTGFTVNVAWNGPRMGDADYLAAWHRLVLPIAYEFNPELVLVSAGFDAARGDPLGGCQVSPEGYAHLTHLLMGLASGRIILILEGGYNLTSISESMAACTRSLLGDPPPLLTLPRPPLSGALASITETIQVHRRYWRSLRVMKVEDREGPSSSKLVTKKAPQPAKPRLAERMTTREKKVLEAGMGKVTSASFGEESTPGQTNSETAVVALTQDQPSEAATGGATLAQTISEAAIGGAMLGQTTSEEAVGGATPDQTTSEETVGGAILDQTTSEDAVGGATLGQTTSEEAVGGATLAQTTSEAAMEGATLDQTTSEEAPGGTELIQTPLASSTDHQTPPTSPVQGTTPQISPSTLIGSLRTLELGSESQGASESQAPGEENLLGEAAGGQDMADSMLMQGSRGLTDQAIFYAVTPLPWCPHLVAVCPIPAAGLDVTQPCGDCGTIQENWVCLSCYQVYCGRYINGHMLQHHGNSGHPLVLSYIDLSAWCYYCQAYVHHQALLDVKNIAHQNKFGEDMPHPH
Protocol: as §2

[18] = system: total HDACs in HT-29 cells; experiment: Fluorometric HDAC activity assay, total HDACs in cell lysates; conditions: read-out: IC50 inhibition of total HDACs, HT-29 cells treated 24 h
Protocol: as §2

[19] = system: HT-29 cells; parameters: method as in PMID 10200307; conditions: cited from earlier work

GI50 ([1]; Homo sapiens): 180 ± 10 nM
GI50 ([2]; Homo sapiens, HCT-116): 110 ± 20 nM
GI50 ([3]; Homo sapiens, HT-29, 48 h): 145 ± 10 nM
GI50 ([4]; Homo sapiens): 140 ± 10 nM
GI50 [7]: 170 ± 10 nM
IC50 [10]: 75.1 ± 4.65 nM
Ratio: fold x IC50 relative to HDAC1 isoform ([10]; HDAC1): 1
IC50 [11]: 242 ± 47.6 nM
Ratio: fold x IC50 relative to HDAC1 isoform ([11]; HDAC2): 3.22
IC50 [12]: 3340 ± 130 nM
Ratio: fold x IC50 relative to HDAC1 isoform ([12]; HDAC8): 44.55
IC50 [13]: > 10000 nM
IC50 [14]: > 5000 nM
Ratio: fold x IC50 relative to HDAC1 isoform ([14]; HDAC5): >60
IC50 [15]: > 10000 nM
Ratio: fold x IC50 relative to HDAC1 isoform ([15]; HDAC7): >130
IC50 [16]: > 10000 nM
Ratio: fold x IC50 relative to HDAC1 isoform ([16]; HDAC9): >130
IC50 [17]: 4368 ± 42.1 nM
HDAC6 IC50 of MPT0G030 as fold x IC50 of SAHA ([17]; HDAC6): > 55 fold
Ratio: fold x IC50 relative to HDAC1 isoform ([17]; HDAC6): 58.19
IC50 [18]: 6450 ± 1390 nM
Structure (SMILES): COc1ccc(S(=O)(=O)N2CCc3cc(C=CC(=O)NO)cc(N)c32)cc1 [MPT0G030, 3-[7-amino-1-(4-methoxy-benzenesulfonyl)-2,3-dihydro-1H-indol-5-yl]-N-hydroxy-acrylamide]
IC50 [5]: 985 ± 60 nM
Body weight [6]: not affected
IC50 in normal (HUVEC) cells relative to IC50 in HT-29 cells [8]: about thirty times higher
Induction of cell apoptosis (cytoplasmic histone-associated DNA fragments) [9]: more effective on inducing cell apoptosis

Structure (SMILES): O=C(CCCCCCC(=O)Nc1ccccc1)NO [SAHA, suberanilohydroxamic acid, reference compound]
GI50 [1]: 2620 ± 1370 nM
GI50 [2]: 440 ± 30 nM
GI50 ([3]; 48 h): 920 ± 50 nM
GI50 [4]: 950 ± 40 nM
IC50 [18]: 29600 ± 2620 nM

Structure (SMILES): Nc1ccccc1NC(=O)c1ccc(CNC(=O)OCc2cccnc2)cc1 [entinostat]
GI50 [19]: 1290 nM

Source: article PMC4170623, “A novel class I HDAC inhibitor, MPT0G030, induces cell apoptosis and differentiation in human colorectal cancer cells via HDAC1/PKCδ and E-cadherin” (Oncotarget, 2014)
